Data as given in paper PMC5762338, “A novel orally available Syk/Src/Jak2 inhibitor, SKLB-850, showed potent anti-tumor activities in B cell lymphoma (BCL) models” (Oncotarget, 2017).

Columns and labels:
[1] = tested on: HBL-1 cells; test: Apoptosis assay, AnnexinV-FITC/propidium iodide FCM; type: cell-based, Human; settings: HBL-1, treatment for 18 hours (legend: 24 hours)
Procedure: Figure 1 The chemical structure of SKLB-850 and its anti-tumor effects in vitro (A) The chemical structure of SKLB-850. (B and C) Apoptosis of Ramos cells induced by SKLB-850. Cells were treated by vehicle, R788 or indicated concentrations of compounds. […]
The ability of SKLB-850 to induce apoptosis of BCL cells was analyzed by FCM. […]
Flow cytometry (FCM) assays were performed to investigate the apoptosis of Ramos and HBL-1 cells induced by SKLB-850. […] Cell apoptosis was analyzed with a flow cytometer (BD FACSCalibur, BD, USA).

[2] = tested on: HBL-1 cells; test: Cell cycle analysis by FCM; type: cell-based, Human; settings: HBL-1, compared with the control, 18 hours
Procedure: (§1) FCM was again used to examine the influence of SKLB-850 on the tumor cell cycle.
(§2) Figure 2 Cell cycle analysis of Ramos and HBL-1 cells induced by SKLB-850, R788 DMSO or control Tumor cells were treated by vehicle, R788 or indicated concentrations of compounds. After 18 hours, cell were harvested and stained with AnnexinV-FITC and propidium iodide, and then analyzed by FCM. […] (A and C) Cell cycle analysis of Ramos cells. (B and D) Cell cycle analysis of HBL-1 cells. […] Columns, mean; bars, SD.^##P < 0.01, 850 group versus DMSO or blank control group.
(§3) Ramos and HBL-1 cells cultured in 6-well plates were treated with DMSO, R788, SKLB-850 or medium. After 18 hours, cells were harvested and washed with PBS, fixed with 70% ethanol for 30 min, stained with 200 μL PI (50 μg/mL PI with 1 mg/mL RNase I, and 0.1% Triton X-100) for 30 min. Cell cycle was analyzed with a flow cytometer (BD FACSCalibur, BD, USA).

[3] = tested on: Ramos cells; test: Cell cycle analysis by FCM; type: cell-based, Human; settings: 18 hours; for percentages of cells in the G2 phase (in words): compared with the control
Procedure: as §1, §2, §3

[4] = tested on: HBL-1 xenograft; test: HBL-1 xenograft mouse model; type: in vivo, NOD/SCID mice; settings: HBL-1 model
Procedure: The in vivo anti-BCL effects of SKLB-850 were investigated in the Ramos and HBL xenograft mouse models with R788 being taken as a positive control. The animals were treated orally once daily for 21 days (Ramos model) or 36 days (HBL-1 model).
All animal studies were conducted according to the guidelines of the Animal Care and Use Committee of Sichuan University (Permit Number: 20121205, Chengdu, Sichuan, China). Ramos and HBL-1 tumor cells were established by subcutaneously injecting 1×10^7 cells (100μL) into the hind flank region of 7–8 week old female NOD/SCID mice (ICR, NOD/SCID). When tumors reached a volume of ∼200 mm^3, mice were randomly divided into different groups (6 per group), and SKLB-850 (40 mg/kg, 20mg/kg) or vehicle (5% DMSO, 25% PEG400, and 70% waters) were given once daily by oral gavage. Tumor growth and body weight were measured every three days or every day during the treatment. Tumor volumes were calculated using the formula as follow: tumor volume (mm^3) = 0.5× length (mm) × width (mm) ^2. Studies were typically terminated when tumors in vehicle treated animals reached an average size of 2,000 mm^3. Solid tumors were removed and processed for immunohistochemical analysis and terminal deoxynucleotidyl transferase-mediated dUTP nick end labeling (TUNEL) assay.

SMILES | percentages of apoptotic cells (in words) [1] | percentages of cells in the G2 phase (in words) [2] | percentages of cells in the G2 phase (in words) [3] | anti-tumor effect (in words) ([4]; positive control, orally once daily) | percentage of G2 phase cells ([3]; 0.01μg/mL, control 19.64 ± 0.61 %) [%] | tumor inhibition rate ([4]; 20 mg/kg orally once daily for 36 days)
COc1cc(Nc2ncc(F)c(Nc3ccc4c(n3)N(COP(=O)(O)O)C(=O)C(C)(C)O4)n2)cc(OC)c1OC [R788, reference compound] | induced apoptosis but obviously much weaker | very weak effect | very weak effect | some anti-tumor effect |  | 
CN1CCN(c2ccc(Nc3ncc(F)c(Nc4ccc(Cl)cc4C(N)=O)n3)cc2)CC1 [SKLB-850, 5-chloro-2-((5-fluoro-2-((4-(4-methylpiperazin-1-yl)phenyl)amino)pyrimidin-4-yl)amino) benzamide] | dose-dependently increased | significantly increased | significantly increased |  | 53.90 ± 2.65 | 80.84% ±4.09%
